Laboratory results published in patent US20060105974A1, “Conjugates of photosensitizers and oligonucleotides for selective photochemiotherapy” (priority 2002, published 2006).
{Ce6} = chlorin e6 photosensitizer conjugate

How the values were obtained:
[1] = tested on: GEO human colon cancer cells; test: MTT cell viability assay after oligonucleotide incubation with or without irradiation; format: cell-based; conditions: one day after incubation, no irradiation
Experimental: To test the possibility of inhibiting cell growth by targeting the EGFR mRNA with Ω-sensitizers, mixed backbone oligonucleotides similar to those described in Example 1 were prepared, using methods described in Example 5. The sequences tested were:
GEO human colon cancer cells known to express approximately about 40000 functional EGFRs were purchased from ATCC (Rockville, Md., USA) and grown as described. Culture was performed in the presence of 10% fetal calf serum (FCS) and penicillin/streptomycin at 37° C. and 6% CO2 in a humid environment. For measurement purposes, the cells were subcultured in 48-well dishes (Costar 3548, Integra Biosiences, Cambridge, Mass., USA) to give 10^5 cells/well 72 hours prior to incubation with the oligonucleotides. […]
The cell viability was tested by means of an MTT assay. This technique allows quantification of cell survival after cytotoxic insult by testing the enzymatic acitivity of the mitochondria. […] The optical density of the product was quantified by its absorption at 540 nm using a 96-well ELISA plate reader (iEMS Reader MF, Labsystems, USA). […] The absorption of each residue was determined at 540 nm using the plate reader. The absorbance readings from treated cells was divided by the absorbance readings from the control cells in order to calculate the fraction of surviving cells.

sense oligonucleotides = test: Photo-oxidation of DHR123 to RH123 by Ω-sensitizers with sense and mismatch oligonucleotides; format: biochemical; conditions: irradiation 405±5 nm; for photochemically induced oxidation of DHR123: in the presence of the sense oligonucleotide; for reduction of oxidation capacity (photo-oxidation of DHR123), one base pair mismatch versus sense oligonucleotide / reduction of oxidation capacity (photo-oxidation of DHR123), two base pair mismatches versus sense oligonucleotide: RH123 fluorescence at 529 nm; for reduction of oxidation capacity (photo-oxidation of DHR123), two base pair mismatches versus sense oligonucleotide: two base pair mismatch sense oligonucleotide
Experimental: (§1) The selective photosensitizing action of the different Ω-sensitizers described in Example 1 was tested in vitro against sense oligonucleotides, and sense oligonucleotides having one and two base mismatches, respectively. For this purpose oligonucleotides with sequences 5′-CAAAGGGAGGAAACCTAGCA-3′ (sense), 5′-CAAAGGGAGGTAACCTAGCA-3′ (sense 1 bp mismatch), and 5′-CAAAGGGAAGTAACCTAGCA-3′ (sense 2 bp mismatch) were synthesized using standard automated phosphoramidite chemistry. Oligonucleotides were dissolved in 2 ml of a solution containing 10 mM Tris-HCl and 2 mM MgCl2 to give a final concentration of 0.8 μM in a quartz cuvette. To this solution 1 ml Dihydrorhodamine 123 (DHR123) (Molecular Probes, Eugene, USA) (40 μM) dissolved in 10 mM Tris-HCl was added. DHR123 is a non-fluorescent molecule that in the presence of oxygenating species undergoes oxygenation to give the fluorescent dye rhodamine 123 having an absorption maximum at 507 nm and a fluorescence maximum at 529 nm. 1 ml of Ω-sensitizer (800 nM) containing solution was added and the final solution was stored in the dark at 37° C. for 20 minutes. Then the solution was irradiated at 405±5 nm with electromagnetic radiation from a filtered Hg-Arc lamp. The RH123 fluorescence intensity at 529 nm was measured every 60 seconds using a Perkin Elmer spectrofluorometer (Model LS50B, Perkin Elmer, Rotkreuz, CH)

[2] = tested on: target sequence (mam gene sequence); test: Ω-sensitizer-induced photo-oxidation of DHR123 as a function of target concentration; format: biochemical; conditions: 10 J/cm^2
Text: In order to test the possibility of using nano particles as the quenching moiety, oligonucleotides labeled with a photosensitive moiety at the 3′ terminus, where labeled at the 5′ terminus with amino modified gold nanoparticles. The mam gene sequence S′-CGGATGAAACTCTGAGCAATGTCTGCAGTTCTGTGAGCCAAAG-3′ (GeneBank accession No. AF015224) was coupled to the complementary stem sequences CCA AGC and GCT TGG at its 5′ and 3′ termini, respectively. The sequence was constructed using fully automated DNA synthesis as described in Example 1. The 3′ end contained an amino group, while the 5′ end was equipped with a six carbon spacer thiol group protected by a trityl moiety (Glen Research, Sterling, Va.) using standard methods. Following cleavage with 28% ammonium hydroxide, oligonucleotides were washed and purified as described above. The 3′ end photosensitive moiety labeled oligonucleotide was prepared and purified using the NHS ester of pheophorbide a as described in Example 1. Then the trityl protection group was removed by adding 0.15M silver nitrate solution to the labeled oligonucleotide for 1 hour. To this mixture 0.15M dithiothreitol (DTT) was added for 10 minutes. After spinning at 10000 rpm the supernatant was transferred to another tube. 400 pmol of this oligonucleotide were then suspended in 180 μl of water and immediately reacted with 6 nmol of monomaleimido gold particles (Ø=1.4 nm) (Nanoprobes) in aqueous 20 mM NaH2PO4, 150 mM NaCl, 1 mM ethylenediamine […] (EDTA) Buffer, pH 6.4, containing 10% isopropanol at 4° C. for 24 hours.
To the solution containing the Ω-sensitizer, 5′ (gold particle)-S—(CH2)6— CCAAGCCGGATGAAACTCTGAGCAATGTCTGCAGTTCTGTGAGCCAAAGCTTGG-(pheophorbide a)-3′, target and one base pair mismatch oligonucleotides were added at different concentrations. After adding appropriate quantities of DHR123 (see Example 1), the solutions were irradiated at 405 nm with electromagnetic radiation doses of 10 J/cm^2 and the fluorescence of rhodamine 123 was measured as described above as a function of the target concentration.

sense oligonucleotide = test: Intrinsic fluorescence emission of the Ω-sensitizer after excitation at 405 nm with sense and mismatch oligonucleotides; format: binding; conditions: excitation 405 nm; two base pair mismatch oligonucleotide versus sense oligonucleotide
Experimental: as §1, with “1 ml of Ω-sensitizer (800 nM) containing solution was added and the final solution was stored in the dark at 37° C. for 20 minutes. Then the solution was irradiated at 405±5 nm with electromagnetic radiation from a filtered Hg-Arc lamp.” left out
Furthermore, the intrinsic fluorescence of the pheophorbide a labeled Ω-sensitizer was used to further underline the selectivity of these new photochemotherapeutic agents.

| Substance | photochemically induced oxidation of DHR123 (sense oligonucleotides) | reduction of oxidation capacity (photo-oxidation of DHR123), one base pair mismatch versus sense oligonucleotide (sense oligonucleotides) | reduction of oxidation capacity (photo-oxidation of DHR123), two base pair mismatches versus sense oligonucleotide (sense oligonucleotides) [fold] | further results |
| --- | --- | --- | --- | --- |
| 5′ (chlorin e6) -GC*G A*CT GA*C TGC CA*A C*TA TG*A* ACA T*C*G C-(chlorin e6)3′ [b)] |  |  |  | cell viability (mitochondrial activity, MTT) in the dark [1]: only slightly reduced |
| 5′-(chlorin)-GCGATGCTAGGTTTCCTCCCTTTGTCGC-(chlorin)-3′ (GCGATGCTAGGTTTCCTCCCTTTGTCGC; DNA, linkages osossooooossooooooooossssso (s phosphorothioate, o phosphodiester), 5' {Ce6}, 3' {Ce6}, methylation of C not given here) [chlorin e6 labeled Ω-sensitizer] | most efficient | about 5 fold | ~20 |  |
| 5′ (gold particle)-S—(CH2)6— CCAAGCCGGATGAAACTCTGAGCAATGTCTGCAGTTCTGTGAGCCAAAGCTTGG-(pheophorbide a)-3′ (CCAAGCCGGATGAAACTCTGAGCAATGTCTGCAGTTCTGTGAGCCAAAGCTTGG; hairpin, 5' gold particle via hexyl thiol, 3' pheophorbide a, partial phosphorothioate, further chemistry not given here) |  |  |  | concentrations of the one base pair mismatched oligonucleotide at which photodynamic action can be observed ([2]; 405 nm): only very high concentrations; concentration of the target sequence at which the RH123 fluorescence intensity reaches its maximum ([2]; irradiated at 405 nm, RH123 fluorescence at 529 nm): about 0.5 μM; RH123 fluorescence with oligonucleotide not complementary to the TCS ([2]; one base pair mismatched oligonucleotide at about 0.5 μM, 405 nm): no fluorescence is detectable |
| 5′-(pheo a)-GCGATGCTAGGTTTCCTCCCTTTGTCGC-(pheo a)-3′ (GCGATGCTAGGTTTCCTCCCTTTGTCGC; pheophorbide a at both ends, partial phosphorothioate, pattern not given here) [pheophorbide a labeled Ω-sensitizer] | most efficient | about 5 fold | ~20 | RH123 fluorescence intensities achieved, compared with the chlorin e6 labeled Ω-sensitizer (sense oligonucleotides; fluorescence at 529 nm): higher fluorescence intensities; fluorescence of the photosensitiser pheophorbide a (intrinsic fluorescence of the Ω-sensitizer) (sense oligonucleotide): significant reduction |
